Columns and labels:
[1] = molecular target: GDP-bound NRAS wild-type protein (Homo sapiens, UniProt P01111); assay: Binding to NRAS by surface plasmon resonance (SPR), Single Cycle Kinetics; details: SPR, GDP-bound NRAS wild-type vs GDP-bound KRAS wild-type
[2] = molecular target: GDP-bound HRAS wild-type protein (Homo sapiens, UniProt P01112); assay: Binding to HRAS by surface plasmon resonance (SPR), Single Cycle Kinetics; details: SPR, GDP-bound HRAS wild-type vs GDP-bound KRAS wild-type
Sequence of GDP-bound HRAS wild-type protein (P01112 whole entry): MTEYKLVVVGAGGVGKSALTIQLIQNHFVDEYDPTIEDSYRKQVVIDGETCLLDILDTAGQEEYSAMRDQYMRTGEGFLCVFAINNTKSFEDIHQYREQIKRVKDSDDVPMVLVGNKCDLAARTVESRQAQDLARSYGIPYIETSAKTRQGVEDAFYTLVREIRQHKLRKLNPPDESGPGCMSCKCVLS

Sequence of GDP-bound NRAS wild-type protein (P01111 whole entry): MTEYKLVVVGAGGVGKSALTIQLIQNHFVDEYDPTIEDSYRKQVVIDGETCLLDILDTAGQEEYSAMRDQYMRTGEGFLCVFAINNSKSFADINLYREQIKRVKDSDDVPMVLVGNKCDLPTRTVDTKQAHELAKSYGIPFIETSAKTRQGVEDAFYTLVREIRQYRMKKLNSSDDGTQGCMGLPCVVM

Row | Compound | NRAS/KRAS (ratio of KD value with respect to NRAS to KD value with respect to KRAS) [1] | HRAS/KRAS (ratio of KD value with respect to HRAS to KD value with respect to KRAS) [2]
1 | CC[C@H](C)[C@@H]1NC(=O)[C@H](C2CCC2)N(C)C(=O)C[C@@H](C(=O)N(C)CC)N(C)C(=O)[C@H](C2CCCC2)N(C)C(=O)C2(CCC2)NC(=O)[C@@H]2C[C@H](C)CN2C(=O)[C@H](CCc2cc(F)c(C(F)(F)F)c(F)c2)NC(=O)CN(C)C(=O)[C@H](Cc2ccc(C(F)(F)F)cc2)N2CC/C=C\C[C@@H](C2=O)N(C)C(=O)CN(C)C1=O [PP2082] | AA (a compound having 20 or more is denoted as AA) | A (a compound having 10 or more and less than 20 is denoted as A)
2 | CCCN(C)C(=O)[C@@H]1CC(=O)N(C)[C@@H](C2CCC2)C(=O)N[C@@H]([C@@H](C)CC)C(=O)N(C)CC(=O)N(C)[C@H]2C/C=C\CCN(C2=O)[C@@H](Cc2ccc(C(F)(F)F)cc2)C(=O)N(C)CC(=O)N[C@@H](CCc2cc(F)c(C(F)(F)F)c(F)c2)C(=O)N2C[C@@H](C)C[C@H]2C(=O)NC2(CCC2)C(=O)N(C)[C@@H](C2CCCC2)C(=O)N1C [PP2083] | A (a compound having 10 or more and less than 20 is denoted as A) | B (a compound having 3 or more and less than 10 is denoted as B)
3 | C#CCN1CC(=O)N(C)[C@H]2C/C=C\CCN(C2=O)[C@@H](Cc2ccc(C(F)(F)F)cc2)C(=O)N(C)CC(=O)N[C@@H](CCc2cc(F)c(C(F)(F)F)c(F)c2)C(=O)N2C[C@H](OCC)C[C@H]2C(=O)NC2(CC(C)(C)C2)C(=O)N(C)[C@@H](C2CCCC2)C(=O)N(C)[C@H](C(=O)N(C)C)CC(=O)N(C)[C@@H](CC)C(=O)N[C@@H]([C@@H](C)CC)C1=O [PP2087] | A (a compound having 10 or more and less than 20 is denoted as A) | A (a compound having 10 or more and less than 20 is denoted as A)
4 | C#CCN1CC(=O)N(C)[C@H]2C/C=C\CCN(C2=O)[C@@H](Cc2ccc(C(F)(F)F)cc2)C(=O)N(C)CC(=O)N[C@@H](CCc2ccc(C(F)(F)F)c(OC)c2)C(=O)N2C[C@H](OCC)C[C@H]2C(=O)NC2(CC(C)(C)C2)C(=O)N(C)[C@@H](C2CCCC2)C(=O)N(C)[C@H](C(=O)N(C)C)CC(=O)N(C)[C@@H](CC)C(=O)N[C@@H]([C@@H](C)CC)C1=O [PP2091] | A (a compound having 10 or more and less than 20 is denoted as A) | B (a compound having 3 or more and less than 10 is denoted as B)
5 | CCC[C@H]1C(=O)N[C@@H]([C@@H](C)CC)C(=O)N(C2CC2)CC(=O)N(C)[C@H]2C/C=C\CCN(C2=O)[C@@H](Cc2ccc(C)cc2)C(=O)N(C)CC(=O)N[C@@H](CCc2cc(F)c(C(F)(F)F)c(F)c2)C(=O)N2C[C@H](OCC)C[C@H]2C(=O)NC2(CC(C)(C)C2)C(=O)N(C)[C@@H](C2CCCC2)C(=O)N(C)[C@H](C(=O)N(C)C)CC(=O)N1C [PP2093, (2S,8S,12R,14S,20S,23S,27S,30S,36S,38Z)-20-cyclopentyl-32-cyclopropyl-8-[2-[3,5-difluoro-4-(trifluoromethyl)phenyl]ethyl]-12-ethoxy-N,N,3′,3′,4,19,22,26,35-nonamethyl-30-[(1S)-1-methylpropyl]-3,6,9,15,18,21,25,28,31,34,42-undecaoxo-27-propyl-2-(p-tolylmethyl)spiro[1,4,7,10,16,19,22,26,29,32,35-undecazatricyclo[34.5.1.0^10,14]dotetracont-38-ene-17,1′-cyclobutane]-23-carboxamide] | A (a compound having 10 or more and less than 20 is denoted as A) | A (a compound having 10 or more and less than 20 is denoted as A)
6 | C=CCN1CC(=O)N(C)[C@H]2C/C=C\CCN(C2=O)[C@@H](Cc2ccc(C)cc2)C(=O)N(C)CC(=O)N[C@@H](CCc2cc(F)c(C(F)(F)F)c(F)c2)C(=O)N2C[C@H](OCC)C[C@H]2C(=O)NC2(CC(C)(C)C2)C(=O)N(C)[C@@H](C2CCCC2)C(=O)N(C)[C@H](C(=O)N(C)C)CC(=O)N(C)[C@@H](CCC)C(=O)N[C@@H]([C@@H](C)CC)C1=O [PP2094] | A (a compound having 10 or more and less than 20 is denoted as A) | A (a compound having 10 or more and less than 20 is denoted as A)
7 | C#CCN1CC(=O)N(C)[C@H]2C/C=C\CCN(C2=O)[C@@H](Cc2ccc(C)cc2)C(=O)N(C)CC(=O)N[C@@H](CCc2cc(F)c(C(F)(F)F)c(F)c2)C(=O)N2C[C@H](OCC)C[C@H]2C(=O)NC2(CC(C)(C)C2)C(=O)N(C)[C@@H](C2CCCC2)C(=O)N(C)[C@H](C(=O)N(C)C)CC(=O)N(C)[C@@H](CCC)C(=O)N[C@@H]([C@@H](C)CC)C1=O [PP2095] | A (a compound having 10 or more and less than 20 is denoted as A) | A (a compound having 10 or more and less than 20 is denoted as A)
8 | CCCN1CC(=O)N(C)[C@H]2C/C=C\CCN(C2=O)[C@@H](Cc2ccc(C)cc2)C(=O)N(C)CC(=O)N[C@@H](CCc2ccc(C(F)(F)F)c(OC)c2)C(=O)N2C[C@H](OCC)C[C@H]2C(=O)NC2(CC(C)(C)C2)C(=O)N(C)[C@@H](C2CCCC2)C(=O)N(C)[C@H](C(=O)N(C)C)CC(=O)N(C)[C@@H](CC)C(=O)N[C@@H]([C@@H](C)CC)C1=O [PP2096] | A (a compound having 10 or more and less than 20 is denoted as A) | A (a compound having 10 or more and less than 20 is denoted as A)
9 | CCC[C@H]1C(=O)N[C@@H]([C@@H](C)CC)C(=O)N(C2CC2)CC(=O)N(C)[C@H]2C/C=C\CCN(C2=O)[C@@H](Cc2ccc(C)cc2)C(=O)N(C)CC(=O)N[C@@H](CCc2ccc(C(F)(F)F)c(OC)c2)C(=O)N2C[C@H](OCC)C[C@H]2C(=O)NC2(CC(C)(C)C2)C(=O)N(C)[C@@H](C2CCCC2)C(=O)N(C)[C@H](C(=O)N(C)C)CC(=O)N1C [PP2097] | A (a compound having 10 or more and less than 20 is denoted as A) | A (a compound having 10 or more and less than 20 is denoted as A)
10 | C=CCN1CC(=O)N(C)[C@H]2C/C=C\CCN(C2=O)[C@@H](Cc2ccc(C)cc2)C(=O)N(C)CC(=O)N[C@@H](CCc2ccc(C(F)(F)F)c(OC)c2)C(=O)N2C[C@H](OCC)C[C@H]2C(=O)NC2(CC(C)(C)C2)C(=O)N(C)[C@@H](C2CCCC2)C(=O)N(C)[C@H](C(=O)N(C)C)CC(=O)N(C)[C@@H](CCC)C(=O)N[C@@H]([C@@H](C)CC)C1=O [PP2098] | A (a compound having 10 or more and less than 20 is denoted as A) | A (a compound having 10 or more and less than 20 is denoted as A)
11 | C#CCN1CC(=O)N(C)[C@H]2C/C=C\CCN(C2=O)[C@@H](Cc2ccc(C)cc2)C(=O)N(C)CC(=O)N[C@@H](CCc2ccc(C(F)(F)F)c(OC)c2)C(=O)N2C[C@H](OCC)C[C@H]2C(=O)NC2(CC(C)(C)C2)C(=O)N(C)[C@@H](C2CCCC2)C(=O)N(C)[C@H](C(=O)N(C)C)CC(=O)N(C)[C@@H](CCC)C(=O)N[C@@H]([C@@H](C)CC)C1=O [PP2099] | A (a compound having 10 or more and less than 20 is denoted as A) | A (a compound having 10 or more and less than 20 is denoted as A)
12 | CCC[C@H]1C(=O)N[C@@H]([C@@H](C)CC)C(=O)N(C2CC2)CC(=O)N(C)[C@H]2C/C=C\CCN(C2=O)[C@@H](Cc2ccc(C(F)(F)F)cc2)C(=O)N(C)CC(=O)N[C@@H](CCc2cc(F)c(C(F)(F)F)c(F)c2)C(=O)N2C[C@H](OCC)C[C@H]2C(=O)NC2(CC(C)(C)C2)C(=O)N(C)[C@@H](C2CCCC2)C(=O)N(C)[C@H](C(=O)N(C)C)CC(=O)N1C [PP2101] | A (a compound having 10 or more and less than 20 is denoted as A) | B (a compound having 3 or more and less than 10 is denoted as B)
13 | C=CCN1CC(=O)N(C)[C@H]2C/C=C\CCN(C2=O)[C@@H](Cc2ccc(C(F)(F)F)cc2)C(=O)N(C)CC(=O)N[C@@H](CCc2cc(F)c(C(F)(F)F)c(F)c2)C(=O)N2C[C@H](OCC)C[C@H]2C(=O)NC2(CC(C)(C)C2)C(=O)N(C)[C@@H](C2CCCC2)C(=O)N(C)[C@H](C(=O)N(C)C)CC(=O)N(C)[C@@H](CCC)C(=O)N[C@@H]([C@@H](C)CC)C1=O [PP2102] | A (a compound having 10 or more and less than 20 is denoted as A) | A (a compound having 10 or more and less than 20 is denoted as A)
14 | C#CCN1CC(=O)N(C)[C@H]2C/C=C\CCN(C2=O)[C@@H](Cc2ccc(C(F)(F)F)cc2)C(=O)N(C)CC(=O)N[C@@H](CCc2cc(F)c(C(F)(F)F)c(F)c2)C(=O)N2C[C@H](OCC)C[C@H]2C(=O)NC2(CC(C)(C)C2)C(=O)N(C)[C@@H](C2CCCC2)C(=O)N(C)[C@H](C(=O)N(C)C)CC(=O)N(C)[C@@H](CCC)C(=O)N[C@@H]([C@@H](C)CC)C1=O [PP2103] | A (a compound having 10 or more and less than 20 is denoted as A) | A (a compound having 10 or more and less than 20 is denoted as A)
15 | CCC[C@H]1C(=O)N[C@@H]([C@@H](C)CC)C(=O)N(C2CC2)CC(=O)N(C)[C@H]2C/C=C\CCN(C2=O)[C@@H](Cc2ccc(C(F)(F)F)cc2)C(=O)N(C)CC(=O)N[C@@H](CCc2ccc(C(F)(F)F)c(OC)c2)C(=O)N2C[C@H](OCC)C[C@H]2C(=O)NC2(CC(C)(C)C2)C(=O)N(C)[C@@H](C2CCCC2)C(=O)N(C)[C@H](C(=O)N(C)C)CC(=O)N1C [PP2105] | A (a compound having 10 or more and less than 20 is denoted as A) | A (a compound having 10 or more and less than 20 is denoted as A)

Reference: patent publication US20250230193A1, “CYCLIC COMPOUND HAVING SELECTIVE KRAS INHIBITORY EFFECT ON HRAS AND NRAS” (CHUGAI SEIYAKU KABUSHIKI KAISHA, priority 2022, published 2025)
